According to patent publication US6423737B1, “Benzamidoxime prodrugs as antipneumocystic agents” (The University of North Carolina at Chapel Hill, priority 1995, dated 2002):
Entries after “also recorded” stand apart in the source; their conditions may differ.

Columns and labels:
[1] = tested on: Pneumocystis carinii; conditions: cited from earlier work; for mean histological score, IV DOSING: tail vein injection daily for 14 days @ 10 mg/kg, scores range from 0.5 (low infection) to 4.0; for intravenous activity of diamidines (in words): previously evaluated by a different score method
[2] = Acute toxicity of single doses in normal rats; format: in vivo; conditions: normal rats; for time after injection to recovery / persistence of symptoms: single IV 20 μmol/kg; for relative acute toxicity among the diamidines: single IV injection
[3] = tested on: Pneumocystis carinii; test: Anti-P. carinii activity in immunosuppressed rat model (lung cyst counts); format: in vivo, Sprague-Dawley rats; conditions: for % saline, ORAL DOSING: oral by gavage daily for 14 days @33 μmol/kg body weight; for % saline, IV DOSING: tail vein injection daily for 14 days at 22 mg/kg body weight; for anti-P. carinii activity when given orally (in words): Formula I series, orally by gavage once daily for 14 days; for activity on oral administration, furan series (in words): orally by gavage
Procedure: The activity of the compounds of Formula I against P. carinii was carried out according to an established method. See Tidwell, R. R., et al., J. Protozool. […] Agents Chemother. […] Agents Chemother. […] Briefly, male Sprague-Dawley rats (barrier raised, not certified virus-free) weighing 150-200 g each, were obtained (Hilltop Laboratories, Scottsdale, Pa.). Immediately upon arrival, the animals were caged individually and begun on a low protein (8%) diet and on drinking water containing tetracycline (0.5 mg/mL) and dexamethasone (1.0 μ/mL). This regimen was continued for eight weeks. At the beginning of the seventh week, animals were divided into groups of 8 or more, and the test compounds were administered for 14 days. Saline and pentamidine-treated groups were included as controls.
Animals were sacrificed at the end of the eighth week by chloroform inhalation. The left lung was weighed, ground through a No. 60 wire mesh screen, and suspended 1:10 (wt/vol) in 10 mM β-mercaptoethanol-Hanks' balanced salts solution (HBSS) without cations. Slides were prepared by spotting 5 μL of lung homogenate diluted 1:10 in HBSS with β-mercaptoethanol and allowed to air dry. The slides were stained with cresyl violet, and the cysts were counted by a blinded protocol. The number of cysts per gram of original lung tissue was calculated, and the groups were reported as the percentages of saline-treated controls.
The anti-P. carinii value for each compound is expressed as the percent of cysts in the treatment group as compared to the saline control group. Values are also compared to a positive control group consisting of animals treated intravenously with pentamidine.

[4] = In vitro metabolism by rat tissue homogenate 9000×g supernatants (HPLC); format: in vitro ADME; conditions: 167 μM substrate plus cofactor solution, 37EC, 10 minutes; FIG. 1
Procedure: In vitro metabolism of diamidoximes 1, 3, 5, and 7 by rat liver homogenate 9000×g supernatants, post-mitochondrial 105,000×g supernatants or microsomal fractions were performed as previously described in B. J. Berger et al., Antimicrob. Agents and Chemotherapy 36, 1825-1831 (1992); B. J. Berger et al., J. Pharmacol. Experimental Therapeutics 256, 883-89 (1991). Briefly, adult male Sprague-Dawley rats, barrier raised, (Hilltop Laboratories, Scottsdale, Pa.) animals were given water and rat chow (Agway, Syracuse, N.Y.) ad libitum. The rats were euthanized by decapitation, the livers removed immediately, rinsed with 50 mM potassium phosphate buffer, pH 7.4, and placed on ice. All subsequent steps were performed at 4EC. The livers were minced, homogenized, and 9000×g supernatants, 105,000×g or 105,000×g microsomal pellets prepared. Each fraction was assayed for protein content as described in M. M. Bradford, Anal. Biochem. 72, 248-254 (1976) and stored at −80EC. Fractions from the rat kidneys, lungs, hearts and brains were prepared similarly.
Reaction mixtures consisted of 1.5 mL 50 mM potassium phosphate buffer, pH 7.4, 0.5 mL cofactor solution (2 mg/mL NADPH, 1.6 mg/mL MgCl2, 1.04 mg/mL glucose-6-phosphate and 2 units/mL glucose-6-phosphate dehydrogenase in 50 mM potassium phosphate buffer pH 7.4), 0.5 mL tissue homogenate and 0.5 mL of the appropriate diamidoxime substrate at a concentration of 167 μM. Reactions were started by adding substrate, then mixtures were incubated at 37EC in a shaking water bath for times shown in the figures. Reactions were terminated by extracting over C18 cartridges and assaying as described below.
(§1) Samples were extracted using solid phase extraction and assayed using high performance liquid chromatography (HPLC) by methods similar to those previously described in Berger et al. (1992) and Berger et al., (1991), supra. Briefly, samples spiked with 2,5-bis[4-(N-isopropylamidino)phenyl]furan dihydrochloride as the internal standard (IS) were extracted over activated C18 Bond Elut cartridges (Varian Associates, Sunnydale, Calif.), washed with water, 100% acetonitrile, then eluted with 75% acetonitrile/25% water containing 15 mm triethylamine and 35 mM acetic acid. The diamidoxime substrates elute in the 100% acetonitrile phase, while mono-amidine and diamidine products elute in the acetonitrile/water mixture containing triethylamine and acetic acid. Elutes were evaporated to dryness at 40EC under a gentle stream of nitrogen and resuspended in HPLC grade water.
Compounds were resolved using a Hewlett-Packard (Avondale, Pa.) model 1090 HPLC equipped with a HP 1050 variable wavelength detector set at 265 nm, a 4.6×250 mm Zorbax RX diisopropyl C8 column (Mac-Mod, Chadd's Ford, PA) maintained at 40EC and a Vectra 486/66U computer with HP Chemstations software. The mobile phase consisted of 15 mM triethylamine and 35 mM acetic acid in HPLC grade water for pump A, and 15 mM triethylamine and 35 mM acetic acid in 75% acetonitrile in water for pump B. The solvent flow rate was 1.5 mL/min, and the solvent gradient ran from 0% B to 25% B at 22 min, to 40% B at 25 min, then 90% B at 35 min. All solvents and reagents used for the assays were HPLC grade. Quantities of metabolites formed were calculated, using peak area rations of authentic standard, from standard addition curves generated by spiking standards into tissue homogenates or tissue culture medium.

[5] = tested on: BRL 3A hepatocytes; test: Metabolism in intact cultured cells (HPLC of culture supernatants); format: in vitro ADME; conditions: 10 μM substrate, 24 hours, 37EC; extracellular medium assayed; FIG. 4
Procedure: Metabolic experiments with intact cultured cells were performed using the BRL 3A hepatocyte line, obtained from the UNC-Chapel Hill Lineberger Tissue Culture Facility. Cells were routinely cultured in Costar (Cambridge, Mass.) 25 cm^2 of tissue culture flasks at 37EC under moist 5% CO2 and 95% air in Ham's F-12 medium (Gibco, Gaithersburg, Md.) containing 5% fetal bovine serum (HyClone Laboratories Inc., Logan, Utah). Confluent cultures were treated with 0.25% trypsin solution (Sigma Chemical Co., ST. Louis Mo.), then approximately 2×10^5 cells/well subcultured into Costar 6-well tissue culture chambers and the cells allowed to grow to confluency. Ten mL fresh medium was added to each culture well and incubations were started by adding 100 μL amidoxime solution (prepared in sterile water) to a final concentration of 10 μM. Cell cultures were incubated at 37EC under moist 5% CO2 and 95% air for 24 hours, then aliquots of culture supernatants extracted and assayed for metabolites as described below. Similar metabolic experiments were performed with cultured J774 A.1 mouse monocyte-macrophage cells cultured in DMEM F-12 medium containing 10% fetal bovine serum and H9c2 rat heart myoblast cells cultured in DMEM H medium containing 10% fetal bovine serum.
as §1
Compounds were resolved using a Hewlett-Packard (Avondale, Pa.) model 1090 HPLC equipped with a HP 1050 variable wavelength detector set at 265 nm, a 4.6×250 mm Zorbax RX diisopropyl C8 column (Mac-Mod, Chadd's Ford, PA) maintained at 40EC and a Vectra 486/66U computer with HP Chemstations software. […] Quantities of metabolites formed were calculated, using peak area rations of authentic standard, from standard addition curves generated by spiking standards into tissue homogenates or tissue culture medium.

[6] = Subjective scale of toxicity and tolerance during treatment in the immunosuppressed rat model; conditions: for Toxicity, IV DOSING / Toxicity, ORAL DOSING: subjective scale; for acute toxicity generally noted for diamidines, on intravenous administration: immunosuppressed rat model
Text: ^b subjective scale of toxicity. […] In general, the larger the value the more severe the toxicity, with values greater than 2 indicating the death of some animals

[7] = 22.0 μmol/kg/day, values greater than 2 indicate death of some animals

In the case of N=C(N)c1ccc(OCCCCCOc2ccc(C(=N)N)cc2)cc1 [Compound 2, 1,5-bis(4′-amidinophenoxy)pentane, reference compound], the “mean histological score, IV DOSING” value [1] is listed as 1.1, the “observed acute toxicity after single intravenous injection” value (shortened to “observed acute toxicity”) ([2]; 20 μmol/kg) is listed as “appeared hypotensive, with rapid paling of extremities, hypoactivity and dyspnea, which progressed to slight cyanosis of extremities” and the “observed acute toxicity” value ([2]; 40 μmol/kg) is listed as “immediate sever hind limb contractions, increased salivation, dyspnea, initial paling of extremities which progressed to marked cyanosis and profound hypoactivity”. The “time after injection to recovery / persistence of symptoms” value [2] was no more than 5 min, the “% saline, ORAL DOSING” value ([3]; Table 2) was 133.09 % saline and the “% saline, IV DOSING” value ([3]; Table 2) was 0.87 % saline. The “% saline, ORAL DOSING” value ([3]; Table 3) was 133.09 % saline.
With NC(=NO)c1ccc(OCCCCOc2ccc(C(N)=NO)cc2)cc1.O=C(O)/C=C\C(=O)O.O=C(O)/C=C\C(=O)O [Compound 3, 1,4-bis(4′-(N-hydroxyamidino)phenoxy)butanedi-maleinate] the “metabolism by rat liver homogenate 9000×g supernatants” value [4] was “metabolized similarly”, the “anti-P. carinii activity / mean cyst counts when given intravenously (in words)” value ([3]; Formula I amidoximes, intravenous) was “significantly reduced compared to saline controls” and the “anti-P. carinii activity when given orally (in words)” value [3] was “most active”. For the same compound, the “% saline, ORAL DOSING” value ([3]; Table 2) was 1.43 % saline, the “% saline, IV DOSING” value ([3]; Table 2) was 0.12 % saline and the “metabolism in intact BRL 3A hepatocytes” value [5] was “metabolized predominantly to the corresponding diamidine”.
For N=C(N)c1ccc(OCCCCOc2ccc(C(=N)N)cc2)cc1 [Compound 4, 1,4-bis(4′-amidinophenoxy)butane, reference compound], the “intravenous activity of diamidines (in words)” value (shortened to “intravenous activity”) [1] is listed as “previously shown to have intravenous activity”, the “mean histological score, IV DOSING” value [1] is listed as 0.5 and the “anti-P. carinii activity when given orally (in words)” value [3] is listed as “reduced or no anti-P. carinii activity”. The “% saline, ORAL DOSING” value ([3]; Table 3) was 46.03 % saline.
For N=C(N)c1ccc(OCCCOc2ccc(C(=N)N)cc2)cc1 [Compound 6, 1,3-bis(4′-amidinophenoxy)propane], the “intravenous activity” value [1] is given as “previously shown to have intravenous activity”, the “mean histological score, IV DOSING” value [1] is given as 0.9 and the “relative acute toxicity among the diamidines” value [2] is given as “less acutely toxic than pentamidine”. For the same compound, the “anti-P. carinii activity when given orally (in words)” value [3] was “reduced or no anti-P. carinii activity”.
For COc1cc(C(=N)N)ccc1OCCCOc1ccc(C(=N)N)cc1OC [Compound 8, 1,3-bis(2′-methoxy-4′-amidinophenoxy)propane, reference compound], the “intravenous activity” value [1] is given as “previously shown to have intravenous activity”, the “observed acute toxicity” value ([2]; 10 μmol/kg) is given as “perceptible hypoactivity” and the “time after injection to recovery / persistence of symptoms” value [2] is given as greater than 15 min. For the same compound, the “relative acute toxicity among the diamidines” value [2] was “even more acutely toxic than the other two diamidines tested” and the “anti-P. carinii activity when given orally (in words)” value [3] was “significant oral activity”.
For NC(=NO)c1ccc(-c2ccc(-c3ccc(C(N)=NO)cc3)o2)cc1 [Compound 10, 2,5-bis-[4-amidinophenyl]furanbis-amidoxime], the “Toxicity, IV DOSING” value ([6]; 0.3 μmol/kg/day) was 0, the “Toxicity, IV DOSING” value ([6]; 2.7 μmol/kg/day) was 0 and the “Toxicity, IV DOSING” value ([6]; 5.5 μmol/kg/day) was “+1”. For the same compound, the “Toxicity, IV DOSING” value ([6]; 11.0 μmol/kg/day) was “+1”, the “Toxicity, IV DOSING” value [6, 7] was “+1” and the “inflammation and necrosis at the injection site” value ([6]; intravenous, 5.5 μmol/day) was “considerable inflammation and necrosis of the tail vein at the injection site”. The “acute toxicity generally noted for diamidines, on intravenous administration” value ([6]; intravenous) was “absent”, the “Toxicity, ORAL DOSING” value ([6]; 5.5 μmol/kg/day) was 0 and the “Toxicity, ORAL DOSING” value ([6]; 11.0 μmol/kg/day) was 0. The “Toxicity, ORAL DOSING” value ([6]; 33.0 μmol/kg/day) was 0, the “activity on oral administration, furan series (in words)” value ([3]; immunosuppressed rat model) was “effective” and the “drug uptake on oral dosage (suggested by the values for the cyst counts)” value ([3]; rat, in vivo, po) was “superior to that of the parent compound 9”.
For CON=C(N)c1ccc(-c2ccc(-c3ccc(C(N)=NOC)cc3)o2)cc1 [Compound 11, 2,5-bis-[4-amidinophenyl]furanbis-O-methylamidoxime], the “Toxicity, IV DOSING” value [6, 7] was 0, the “tolerance at the injection site” value ([6]; intravenous, 22.0 μmol/kg/day) was “well-tolerated” and the “acute toxicity generally noted for diamidines, on intravenous administration” value ([6]; intravenous) was “absent”. The “Toxicity, ORAL DOSING” value ([6]; 5.5 μmol/kg/day) was 0, the “Toxicity, ORAL DOSING” value ([6]; 11.0 μmol/kg/day) was 0 and the “Toxicity, ORAL DOSING” value ([6]; 22.0 μmol/kg/day) was 0. The “Toxicity, ORAL DOSING” value ([6]; 33.0 μmol/kg/day) was 0, the “activity on oral administration, furan series (in words)” value ([3]; immunosuppressed rat model) was “effective; also recorded: more effective than the bis-amidoxime 10” and the “drug uptake on oral dosage (suggested by the values for the cyst counts)” value ([3]; oral dosage, immunosuppressed rat model) was “superior to that of the parent compound 9”.
For CCON=C(N)c1ccc(-c2ccc(-c3ccc(C(N)=NOCC)cc3)o2)cc1 [Compound 12, 2,5-bis-[4-amidinophenyl]furanbis-O-ethylamidoxime], the “Toxicity, IV DOSING” value [6, 7] was “+1” and the “Toxicity, ORAL DOSING” value ([6]; 33.0 μmol/kg/day) was 0.
